Laboratory results as given in EP4772509A1, “KINESIN KIF18A INHIBITOR, AND APPLICATION THEREOF” (Shanghai Apeiron Therapeutics Company Limited, priority 2023, dated 2025).
Values joined by “and” are separate entries in the source; they are usually repeats but may differ in a detail not shown here. Identical values can stand only once.

Experiments:
[1] = target: T1, Human KIF18A (amino acid sequence 1-417) (Homo sapiens, UniProt Q8NI77); assay: Enzymatic activity test (ADP-Glo, microtubule-stimulated ATPase); assay type: biochemical; settings: 60 µg/mL microtubules, 25 µM ATP, 2.5 nM KIF18A protein, 120 min at ambient temperature, chemiluminescence; read-out: KIF18A IC50
T1 construct: purchased Viva Biotech (Shanghai) Ltd
T1 sequence (Q8NI77 1-417): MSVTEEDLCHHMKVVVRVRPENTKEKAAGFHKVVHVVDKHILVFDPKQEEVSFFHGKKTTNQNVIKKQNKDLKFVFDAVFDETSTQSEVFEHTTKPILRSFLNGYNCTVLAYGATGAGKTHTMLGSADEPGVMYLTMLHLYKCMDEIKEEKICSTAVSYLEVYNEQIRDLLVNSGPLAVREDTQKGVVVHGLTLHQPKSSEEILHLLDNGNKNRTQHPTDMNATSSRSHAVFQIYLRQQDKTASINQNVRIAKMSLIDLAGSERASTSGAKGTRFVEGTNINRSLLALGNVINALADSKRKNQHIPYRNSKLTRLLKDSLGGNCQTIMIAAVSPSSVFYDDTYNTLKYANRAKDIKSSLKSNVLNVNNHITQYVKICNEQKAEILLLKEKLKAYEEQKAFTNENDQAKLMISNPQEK
Protocol: Materials: Human KIF18A (amino acid sequence 1-417) was purchased from Viva Biotech (Shanghai) Ltd.; the ADP-Glo™ protein kinase kit was acquired from Promega, USA; tubulin was sourced from Cytoskeleton, USA; and the 384-well assay plate and Envision multifunctional microplate reader were obtained from PerkinElmer, USA.
Enzymatic Activity Test: The compound powder was dissolved in DMSO to prepare a stock solution of 10 mM. Then gradient dilution was performed for the compounds in the microplate to achieve a final concentration of 0-10 µM. Then, 2.5 µL each of tubulin, compound, ATP, and KIF18A protein were added to the microplate in sequence for reaction at ambient temperature for 120 min. The final concentrations in the enzyme reaction were 60 µg/mL for microtubules, 25 µM for ATP, and 2.5 nM for KIF18A protein. After the enzyme reaction, 10 µL of ADP-GLO reaction reagent was added to each well and incubated at room temperature for 30 min. After that, 20 µL of detection reagent was added to each well and incubated at room temperature for 30 min in the dark. Finally, chemiluminescence detection was performed using the PerkinElmer Envision.

OVCAR3 cells = assay: Cell proliferation activity test (CyQUANT Direct); assay type: cell-based; settings: Homo sapiens, OVCAR-3, 72 h, 3 days, 0.2% DMSO, CyQUANT fluorescence
Protocol: Materials and Cells: OVCAR3 cells were purchased from Nanjing Cobioer Biosciences Co., Ltd. RPMI-1640 medium, fetal bovine serum, and the CyQUANT Direct Cell Proliferation Assay kit were purchased from Thermo Fisher Scientific, USA; 96-well cell culture plates were sourced from Corning, USA.
Cell Culture: OVCAR3 cells were cultured with RPMI-1640 medium containing 10% fetal bovine serum and incubated in a 5% CO2 incubator at 37°C. Only cells in the logarithmic growth phase could be used for the test.
OVCAR3 cells were inoculated into a 96-well cell culture plate at 90 µL per well and incubated overnight in a 5% CO2 incubator at 37°C. The compound powder was dissolved in DMSO to prepare a stock solution of 10 mM. Then gradient dilution was performed for the compounds in the microplate to achieve a final concentration of 0-10 µM. 10 µL of cell culture medium containing compounds was added to each well to make the final DMSO content 0.2%. The cell plates were incubated in a 5% CO2 incubator at 37°C for 3 days. 100 µL of CyQUANT detection reagent was added to each well, reacted at 37°C for 60 min, and fluorescence detection was performed using the PerkinElmer Envision.

Molecule | IC50 [1] | IC50 (OVCAR3 cells)
Cc1cc2nc(n1)N1CCC(F)(F)C(/C=C\c3ccc(cc3)-c3cc(NS(=O)(=O)CCO)ccc3C(=O)N2)C1 (stereo not shown) [Example 43, N-(2^4,2^4-difluoro-1^6-methyl-7-oxo-8-aza-1(2,4)-pyrimidin-2(1,3)-piperidin-5(1,4),6(1,2)-diphenylcyclooct-3-en-6^5-yl)-2-hydroxyethane-1-sulfonamide] | – | 2.58 µM
Cc1cc2nc(n1)N1CCC(F)(F)C(/C=C/CCC3CCN(CC3)c3cc(NS(=O)(=O)CCO)ccc3-n3cc-2nn3)C1 (racemic) [Example 86, N-((3^4,8)-1^4,1^4-difluoro-2^6-methyl-3^1H-2(2,4)-pyrimidin-1(1,3),5(1,4)-dipiperidin-3(4,1)-triazole-4(1,2)-benzoazacyclononane-8-en-44-yl)-2-hydroxyethane-1-sulfonamide] | 0.352 µM | 0.063 µM
Cc1cc2nc(n1)N1CCC(F)=C(/C=C\CC3CCN(CC3)c3cc(NS(=O)(=O)CCO)c4c(c3C(=O)N2)CCC4=O)C1 [Example 3, N-(1^4-fluoro-2^6-methyl-5^1,4-dioxo-11,1^2,1^3,1^6,5^2,5^3-hexahydro-5^1H-3-aza-^2(2,4)-pyrimidin-1(1,5)-pyridin-6(1,4)-piperidin-5(4,5)-indenoheterononane-8-en-5^7-yl)-2-hydroxyethane-1-sulfonamide] | 0.566 µM | 1.13 µM
2-Hydroxy-N-(8-methyl-2^1,3-dione-2^2,2^3-dihydro-2^1H-4,6-diaza-5(2,6)-pyridin-1(1,4)-piperidin-2(5,4)-indenoundecan e-9-en-2^7-yl)ethane-1-sulfonamide [Example 38] | 0.113 µM | –
COc1cc2nc(n1)N1CCC(F)(F)C(/C=C\C3=CC=C(S3)c3cc(NS(=O)(=O)CCO)ccc3C(=O)N2)C1 (stereo not shown) [Example 60, N-(2^4,2^4-difluoro-1^1-methoxy-7-oxo-8-aza-1(2,4)-pyrimidin-2(1,3)-piperidin-5(2,5)-thiophene-6(1,2)-benzenecyclooctane-3-en-6^5-yl)-2-hydroxyethane-1-sulfonamide] | 0.04 µM | –
Cc1cc2nc(n1)N1CCC(F)(F)C(/C=C\C3=CC=C(S3)c3cc(NS(=O)(=O)CCO)ccc3C(=O)N2)C1 (stereo not shown) [Example 62, N-(2^4,2^4-difluoro-1^6-methyl-7-oxo-8-aza-1(2,4)-pyrimidin-2(1,3)-piperidin-5(2,5)-thiophene-6(1,2)-benzeneheterocyclooct-3-en-6^5-yl)-2-hydroxyethane-1-sulfonamide] | 0.035 µM | –
COc1cc2nc(n1)N1CCC(F)(F)C(CCCc3c(F)cc(cc3F)-c3cc(NS(=O)(=O)CCO)ccc3C(=O)N2)C1 (stereo not shown) [Example 59, 2-hydroxy-N-(1^4,1^4,6^3,6^5-tetrafluoro-2^6-methoxy-4-oxo-3-aza-2(2,4)-pyrimidin-1(1,3)-piperidin-5(1,2),6(1,4)-diphenylheterocyclononane-54-yl)ethane-1-sulfonamide] | 0.223 µM | –
Cc1cc2nc(n1)N1CCC(F)(F)C(CCC3=CC=C(S3)c3cc(NS(=O)(=O)CCO)ccc3C(=O)N2)C1 (stereo not shown) [Example 63, N-(2^4,2^4-difluoro-1^6-methyl-7-oxo-8-aza-1(2,4)-pyrimidin-2(1,3)-piperidin-5(2,5)-thiophene-6(1,2)-benzeneheterocyclooctan-6^5-yl)-2-hydroxyethane-1-sulfonamide] | 0.126 µM | –
COc1cc2nc(n1)N1CCC(F)(F)C(CCC3=CC=C(S3)c3cc(NS(=O)(=O)CCO)ccc3C(=O)N2)C1 (stereo not shown) [Example 61, N-(2^4,2^4-difluoro-1^6-methoxy-7-oxo-8-aza-1(2,4)-pyrimidin-2(1,3)-piperidin-5(2,5)-thiophene-6(1,2)-benzeneheterocyclooctan-6^3-yl)-2-hydroxyethane-1-sulfonamide] | 0.06 µM | –
Cc1cc2nc(n1)N1CCC(F)(F)C(/C=C/CC3CC4(C3)CN(C4)c3cc(NS(=O)(=O)CCO)ccc3C(=O)N2)C1 (stereo not shown) [Example 47, N-(6^4,6^4-difluoro-5^1-methyl-3-oxo-4-aza-5(4,2)-pyrimidin-6(1,3)-piperidin-1(1,3)-azetidin-2(1,2)-benzene-10(1,3)-cyclobutyramide-7-en-2^5-yl)-2-hydroxyethane-1-sulfonamide] | 0.566 µM and 0.625 µM | –

Other lines, results leading:

IC50 [1] | IC50 (OVCAR3 cells) | Molecule
1.02 µM | 1.28 µM | Cc1cc2nc(n1)N1CCC(F)=C(/C=C\CC3CCN(CC3)c3cc(NS(=O)(=O)CCO)ccc3-n3cc-2nn3)C1 [Example 82, N-((3^4Z,7Z)-1^4-fluoro-2^6-inethyl-1^1,1^2,1^3,1^6-tetrahydro-3^1H-2(2,4)-pyrimidin-1(1,5)-pyridin-5(1,4)-piperidin-3(4,1)-triazole-4(1,2)-benzylcyclooct-7-en-4^4-yl)-2-hydroxyethane-1-sulfonamide]
0.043 µM | – | Cc1cc2nc(n1)N1CCC(F)(F)C(C=CCc3csc(c3)-c3cc(NS(=O)(=O)CCO)ccc3C(=O)N2)C1 (stereo not shown) [Example 66, N-(1^4,1^4-difluoro-2^6-methyl-4-oxo-3-aza-2(2,4)-pyrimidin-1(1,3)-piperidin-6(2,4)-thiophene-5(1,2)-benzoazacyclon-8-en-5^4-yl)-2-hydroxyethane-1-sulfonamide]
0.097 µM | – | COc1cc2nc(n1)N1CCC(F)(F)C(/C=C\CC3=CC=C(S3)c3cc(NS(=O)(=O)CCO)ccc3C(=O)N2)C1 (stereo not shown) [Example 64, N-(1^4,1^4-difluoro-2^6-methoxy-4-oxo-3-aza-2(2,4)-pyrimidin-1(1,3)-piperidin-6(2,5)-thiophene-5(1,2)-benzoazacyclon-8-en-5^4-yl)-2-hydroxyethane-1-sulfonamide]
– | 0.1 µM | Cc1cc2nc(n1)N1CCC(F)=C(/C=C/CC3CCN(CC3)c3cc(NS(=O)(=O)CCO)ccc3-n3cc-2nn3)C1 [Example 83, N-((3^4Z,7E)-1^4-fluoro-2^6-methyl-1^1,1^2,1^3,16-tetrahydro-3^1H-2(2,4)-pyrimidin-1(1,5)-pyridin-5(1,4)-piperidin-3(4,1)-triazole-4(1,2)-benzylcyclooct-7-en-4^4-yl)-2-hydroxyethane-1-sulfonamide]
0.135 µM | – | COc1cc2nc(n1)N1CCC(F)(F)C(CCCC3=CC=C(S3)c3cc(NS(=O)(=O)CCO)ccc3C(=O)N2)C1 (stereo not shown) [Example 65, N-(1^4,1^4-difluoro-2^6-methoxy-4-oxo-3-aza-2(2,4)-pyrimidin-1(1,3)-piperidin-6(2,5)-thiophene-5(1,2)-benzoazacyclononane-5^4-yl)-2-hydroxyethane-1-sulfonamide]
– | 0.034 µM | Cc1cc2nc(n1)N1CCC(F)(F)C(C=CCC3CCN(CC3)c3cc(NS(=O)(=O)CCO)ccc3-n3cc-2nn3)C1 (stereo not shown) [Example 81, N-((3^4,7)-1^4,1^4-difluoro-2^6-methyl-3^1H-2(2,4)-pyrimidin-1(1,3),5(1,4)-dipiperidin-3(4,1)-triazole-4(1,2)-benzocyclooct-7-en-44-yl)-2-hydroxyethane-1-sulfonamide]
0.045 µM | – | Cc1cc2nc(n1)N1CCC(F)(F)C(CCc3csc(c3)-c3cc(NS(=O)(=O)CCO)ccc3C(=O)N2)C1 (stereo not shown) [Example 69, N-(2^4,2^4-difluoro-1^6-methyl-7-oxo-8-aza-1(2,4)-pyrimidin-2(1,3)-piperidin-5(2,4)-thiophene-6(1,2)-benzeneheterocyclooctan-6^5-yl)-2-hydroxyethane-1-sulfonamide]
0.155 µM | – | Cc1cc2nc(n1)N1CCC(F)(F)C(CCCc3csc(c3)-c3cc(NS(=O)(=O)CCO)ccc3C(=O)N2)C1 (stereo not shown) [Example 68, N-(1^4,1^4-difluoro-2^6-methyl-4-oxo-3-aza-2(2,4)-pyrimidin-1(1,3)-piperidin-6(2,4)-thiophene-5(1,2)-benzoazacyclononane-5^4-yl)-2-hydroxyethane-1-sulfonamide]
0.251 µM | – | Cc1cc2nc(n1)NCC(C)C=CC1=CC=C(S1)c1cc(NS(=O)(=O)CCO)ccc1C(=O)N2 (stereo not shown) [Example 70, N-(5^6,8-dimethyl-3-oxo-4,6-diaza-5(4,2)-pyrimidin-1(2,5)-thiophene-2(1,2)-benzenecyclodec-9-en-25-yl)-2-hydroxyeth ane-1-sulfonamide]
